Experimental data as given in ChEMBL document CHEMBL3232796, “Synthesis and carbonic anhydrase I, II, IX and XII inhibition studies of 4-N,N-disubstituted sulfanilamides incorporating 4,4,4-trifluoro-3-oxo-but-1-enyl, phenacylthiourea and imidazol-2(3H)-one/thione moieties” (Bioorg Med Chem Lett, 2014).

The molecules below were run against Carbonic anhydrase 9 (Homo sapiens, UniProt Q16790).
Description: Inhibition of human recombinant transmembrane tumor associated carbonic anhydrase-9 incubated for 15 mins prior to testing by stopped-flow CO2 hydrase assay

Compound	Ki
Cc1ccc(C(=O)CN(/C=C/C(=O)C(F)(F)F)c2ccc(S(N)(=O)=O)cc2)cc1	18 nM
NS(=O)(=O)c1ccc(N(/C=C/C(=O)C(F)(F)F)CC(=O)c2ccc(F)cc2)cc1	13 nM
NS(=O)(=O)c1ccc(N(/C=C/C(=O)C(F)(F)F)CC(=O)c2ccc(Cl)cc2)cc1	17 nM
NS(=O)(=O)c1ccc(N(/C=C/C(=O)C(F)(F)F)Cc2ccccc2)cc1	39 nM
NS(=O)(=O)c1ccc(N(/C=C/C(=O)C(F)(F)F)Cc2ccc(Cl)cc2)cc1	33 nM
CCOC(=O)NC(=S)N(CC(=O)c1ccc(Cl)cc1)c1ccc(S(N)(=O)=O)cc1	25 nM
NS(=O)(=O)c1ccc(-n2cc(-c3ccccc3)[nH]c2=O)cc1	34 nM

More lines, now with the values ahead:

Ki	Compound
25 nM	NS(=O)(=O)c1ccc(-n2cc(-c3ccc(F)cc3)[nH]c2=O)cc1
9.5 nM	NS(=O)(=O)c1ccc(N(/C=C/C(=O)C(F)(F)F)CC(=O)c2ccccc2)cc1
13 nM	NS(=O)(=O)c1ccc(-n2cc(-c3ccccc3)[nH]c2=S)cc1
37 nM	NS(=O)(=O)c1ccc(-n2cc(-c3ccc(F)cc3)[nH]c2=S)cc1
